Two molecules from US20140121272A1, “DEODORIZATION OF PEROXYCARBOXYLIC ACIDS USING CHAOTROPIC AGENTS” (ECOLAB USA INC., priority 2012, published 2014) can be followed below.

The nature of the data set: pH of Oxonia Active after addition of the additive. It is filed as physicochemical. The note with it: for effect of the additive on the product's pH: Oxonia Active; for pH: additive dissolved in Oxonia Active. Here is the method:
The ability to remove odor from a concentrated peracetic acid product was evaluated. Oxonia Active is a concentrated peracetic acid product available from Ecolab, Inc. (St. Paul, Minn.). The commercial product has about 6% peracetic acid and 22% hydrogen peroxide.
Urea was dissolved into the Oxonia Active at various molar ratios to the peracetic acid level and the resulting effect on the product's odor was observed.

For Ammonium carbonate, the “effect of the additive on the product's pH” value is reported as “raised the pH”. Also, the pH (molar POAA/additive 0.5/1) is on record as 7.00. The molecule also had a pH (molar POAA/additive 1/0.50) of 3.64. Besides, for the setting “molar POAA/additive 1/1”, the pH was found to be 5.90.
Take `NC(N)=O` [Urea]: the “effect of the additive on the product's pH” value is “did not significantly change”. The pH (molar POAA/additive 0.5/1) was determined as 1.38. Under “molar POAA/additive 1/0.25”, the pH was found to be 1.10. Besides, the pH (molar POAA/additive 1/0.50) was 1.10. The molecule also displayed a pH (molar POAA/additive 1/1) of 1.16.
